These molecules were tested against T1, K-Ras G12C (Homo sapiens, UniProt P01116, G12C) (assay: CAF assay (% CAF; method in Example 7, not in this part)). Conditions: 10 uM compound, 1 h incubation.
T1 construct: This protein contained 188 amino acids in total, including an N-terminal 6-Histidine tag; made in house; host or cells: E. coli BL21
Assay type: binding

| % CAF @ 10 uM, 1h | Compound |
| --- | --- |
| 68.7% | C=CC(=O)N1C[C@H](C)N(c2nc(=O)n3c4c(c(-c5ccc(F)cc5F)c(Cl)cc24)SC[C@@H]3COC)C[C@H]1C [Example 494, (3S)-7-((2S,5R)-4-acryloyl-2,5-dimethylpiperazin-1-yl)-9-chloro-10-(2,4-difluorophenyl)-3-(methoxymethyl)-2H-[1,4]thiazino[2,3,4-ij]quinazolin-5(3H)-one] |
| 57.8% | C=CC(=O)N1CCN(c2nc(=O)n3c4c(c(-c5cc(F)c(F)cc5F)c(Cl)cc24)SC[C@@H]3CN2CCC3(CC2)COC3)[C@@H](C)C1 [Example 469, (3S)-3-(2-oxa-7-azaspiro[3.5]nonan-7-ylmethyl)-7-((S)-4-acryloyl-2-methylpiperazin-1-yl)-9-chloro-10-(2,4,5-trifluorophenyl)-2H-[1,4]thiazino[2,3,4-ij]quinazolin-5(3H)-one] |
| 73.6% | C=CC(=O)N1CCN(c2nc(=O)n3c4c(c(-c5cc(Cl)c(F)cc5F)c(Cl)cc24)SC[C@@H]3CN2CCN(CC)CC2)[C@@H](C)C1 [Example 412, (3S)-7-((S)-4-acryloyl-2-methylpiperazin-1-yl)-9-chloro-10-(5-chloro-2,4-difluorophenyl)-3-((4-ethylpiperazin-1-yl)methyl)-2H-[1,4]thiazino[2,3,4-ij]quinazolin-5(3H)-one] |
| 97.4% | C=CC(=O)N1C[C@H](C)N(c2nc(=O)n3c4c(c(-c5ccc(F)cc5F)c(C(F)(F)F)cc24)SC[C@@H]3CN2CCN(C3CC3)CC2)C[C@H]1C (single isomer, unassigned) [Example 581] |
| 61% | C=CC(=O)N1CCN(c2nc(=O)n3c4c(c(-c5ccc(F)cc5F)c(C(F)(F)F)cc24)S(=O)(=O)C[C@@H]3CC2CCN(CC(F)F)CC2)[C@@H](C)C1 [Example 429, (3S)-7-((S)-4-acryloyl-2-methylpiperazin-1-yl)-3-((1-(2,2-difluoroethyl)piperidin-4-yl)methyl)-10-(2,4-difluorophenyl)-9-(trifluoromethyl)-2H-[1,4]thiazino[2,3,4-ij]quinazolin-5(3H)-one 1,1-dioxide] |

Same assay, conditions: 10 uM, 1 h; Table 3

| % CAF @ 10 uM, 1h | Compound |
| --- | --- |
| 91.7% | C=CC(=O)N1CCN(c2nc(=O)n3c4c(c(-c5cccc6cnn(C)c56)c(Cl)cc24)SCC3)[C@@H](C)C1 (atropisomer, axis not shown) [Example 108, (R)-7-((S)-4-acryloyl-2-methylpiperazin-1-yl)-9-chloro-10-(1-methyl-1H-indazol-7-yl)-2,3-dihydro-5H-[1,4]thiazino[2,3,4-ij]quinazolin-5-one] |
| 89.2% | C=CC(=O)N1CCN(c2nc(=O)n3c4c(c(-c5ccc(F)cc5F)c(Cl)cc24)SCC3)[C@H](CS(C)(=O)=O)C1 [Example 188, 7-((S)-4-acryloyl-2-((methylsulfonyl)methyl)piperazin-1-yl)-9-chloro-10-(2,4-difluorophenyl)-2,3-dihydro-5H-[1,4]thiazino[2,3,4-ij]quinazolin-5-one] |

Same assay, conditions: 10 μM, 1 h; Table 4

| % CAF @ 10 μM, 1 h | Compound |
| --- | --- |
| 74% | C=CC(=O)N1CCN(c2nc(=O)n3c4c(c(-c5c(F)cc(F)cc5F)c(Cl)cc24)SC[C@@H]3CN2CCN(CC)CC2)[C@@H](C)C1 [Example 351, (S)-7-((S)-4-acryloyl-2-methylpiperazin-1-yl)-9-chloro-3-((4-ethylpiperazin-1-yl)methyl)-10-(2,4,6-trifluorophenyl)-2H-[1,4]thiazino[2,3,4-ij]quinazolin-5(3H)-one] |
| 96% | C=CC(=O)N1CCN(c2nc(=O)n3c4c(c(-c5ccc(F)cc5F)c(Cl)cc24)SC[C@@H]3CN2CCN(C3COC3)CC2)[C@@H](C)C1 [Example 355, (3S)-7-((S)-4-acryloyl-2-methylpiperazin-1-yl)-9-chloro-10-(2,4-difluorophenyl)-3-((4-(oxetan-3-yl)piperazin-1-yl)methyl)-2H-[1,4]thiazino[2,3,4-ij]quinazolin-5(3H)-one] |
